Reference: the supplement of paper PMC10307832

How the values were obtained:
Assay in all cases: relative viability (nuclei count vs DMSO), 5 days (fraction); higher = more cells survive
Bexarotene + AZD7762 = compound: C=C(c1ccc(C(=O)O)cc1)c1cc2c(cc1C)C(C)(C)CCC2(C)C [Bexarotene] + NC(=O)Nc1cc(-c2cccc(F)c2)sc1C(=O)N[C@H]1CCCNC1 [AZD7762] (partner 0.2 µM)
How it was run: (§1)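 Values are medians from duplicate plates. Each reflects relative viability, defined as the nuclei count of treated wells over that of vehicle wells. Lung cancer cell lines in 1536-well plates were pin-tool dosed one day after seeding with one drug alone or with a fixed anchor-drug dose plus five library-drug doses (not always all listed) in √10 steps, then fixed, stained and imaged at 4× after 5 days.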

Bexarotene + Pemetrexed = compound: C=C(c1ccc(C(=O)O)cc1)c1cc2c(cc1C)C(C)(C)CCC2(C)C [Bexarotene] + Nc1nc2[nH]cc(CCc3ccc(C(=O)N[C@@H](CCC(=O)O)C(=O)O)cc3)c2c(=O)[nH]1 [Pemetrexed] (partner 0.2 µM)
How it was run: as §1

Bexarotene + OSI-027 = compound: C=C(c1ccc(C(=O)O)cc1)c1cc2c(cc1C)C(C)(C)CCC2(C)C [Bexarotene] + COc1cccc2cc(-c3nc([C@H]4CC[C@H](C(=O)O)CC4)n4ncnc(N)c34)[nH]c12 [OSI-027] (partner 0.5 µM)
How it was run: as §1

Bexarotene + Foretinib = compound: C=C(c1ccc(C(=O)O)cc1)c1cc2c(cc1C)C(C)(C)CCC2(C)C [Bexarotene] + COc1cc2c(Oc3ccc(NC(=O)C4(C(=O)Nc5ccc(F)cc5)CC4)cc3F)ccnc2cc1OCCCN1CCOCC1 [Foretinib] (partner 0.25 µM)
How it was run: as §1

Cell Line: NCI-H1793
- relative viability (Bexarotene + AZD7762; first compound 0.08 µM): 0.442
- relative viability (Bexarotene + AZD7762; first compound 0.253 µM): 0.68
- relative viability (Bexarotene + AZD7762; first compound 0.8 µM): 0.511
- relative viability (Bexarotene + AZD7762; first compound 2.53 µM): 0.505
- relative viability (Bexarotene + AZD7762; first compound 8 µM): 0.504
- relative viability (Bexarotene + Pemetrexed; first compound 0.08 µM): 0.972
- relative viability (Bexarotene + Pemetrexed; first compound 0.253 µM): 0.828
- relative viability (Bexarotene + Pemetrexed; first compound 0.8 µM): 0.79
- relative viability (Bexarotene + Pemetrexed; first compound 2.53 µM): 0.845
- relative viability (Bexarotene + Pemetrexed; first compound 8 µM): 0.852
- relative viability (Bexarotene + OSI-027; first compound 0.08 µM): 0.339
- relative viability (Bexarotene + OSI-027; first compound 0.253 µM): 0.319
- relative viability (Bexarotene + OSI-027; first compound 0.8 µM): 0.313
- relative viability (Bexarotene + OSI-027; first compound 2.53 µM): 0.203
- relative viability (Bexarotene + OSI-027; first compound 8 µM): 0.311
- relative viability (Bexarotene + Foretinib; first compound 0.08 µM): 0.732
- relative viability (Bexarotene + Foretinib; first compound 0.253 µM): 0.813
- relative viability (Bexarotene + Foretinib; first compound 0.8 µM): 0.763
- relative viability (Bexarotene + Foretinib; first compound 2.53 µM): 0.629
- relative viability (Bexarotene + Foretinib; first compound 8 µM): 0.676

Cell Line: HCC-827
- relative viability (Bexarotene + AZD7762; first compound 0.08 µM): 0.227
- relative viability (Bexarotene + AZD7762; first compound 0.253 µM): 0.213
- relative viability (Bexarotene + AZD7762; first compound 0.8 µM): 0.405
- relative viability (Bexarotene + AZD7762; first compound 2.53 µM): 0.196
- relative viability (Bexarotene + AZD7762; first compound 8 µM): 0.36
- relative viability (Bexarotene + Pemetrexed; first compound 0.08 µM): 0.285
- relative viability (Bexarotene + Pemetrexed; first compound 0.253 µM): 0.271
- relative viability (Bexarotene + Pemetrexed; first compound 0.8 µM): 0.263
- relative viability (Bexarotene + Pemetrexed; first compound 2.53 µM): 0.317
- relative viability (Bexarotene + Pemetrexed; first compound 8 µM): 0.245
- relative viability (Bexarotene + OSI-027; first compound 0.08 µM): 0.843
- relative viability (Bexarotene + OSI-027; first compound 0.253 µM): 0.739
- relative viability (Bexarotene + OSI-027; first compound 0.8 µM): 0.715
- relative viability (Bexarotene + OSI-027; first compound 2.53 µM): 0.867
- relative viability (Bexarotene + OSI-027; first compound 8 µM): 0.74
- relative viability (Bexarotene + Foretinib; first compound 0.08 µM): 1.07
- relative viability (Bexarotene + Foretinib; first compound 0.253 µM): 1.02
- relative viability (Bexarotene + Foretinib; first compound 0.8 µM): 0.992
- relative viability (Bexarotene + Foretinib; first compound 2.53 µM): 1.09
- relative viability (Bexarotene + Foretinib; first compound 8 µM): 0.976

Cell Line: HCC-78
- relative viability (Bexarotene + AZD7762; first compound 0.08 µM): 0.638
- relative viability (Bexarotene + AZD7762; first compound 0.253 µM): 0.391
- relative viability (Bexarotene + AZD7762; first compound 0.8 µM): 0.542
- relative viability (Bexarotene + AZD7762; first compound 2.53 µM): 0.554
- relative viability (Bexarotene + AZD7762; first compound 8 µM): 0.638
- relative viability (Bexarotene + Pemetrexed; first compound 0.08 µM): 0.903
- relative viability (Bexarotene + Pemetrexed; first compound 0.253 µM): 0.636
- relative viability (Bexarotene + Pemetrexed; first compound 0.8 µM): 0.821
- relative viability (Bexarotene + Pemetrexed; first compound 2.53 µM): 0.919
- relative viability (Bexarotene + Pemetrexed; first compound 8 µM): 0.89
- relative viability (Bexarotene + OSI-027; first compound 0.08 µM): 0.389
- relative viability (Bexarotene + OSI-027; first compound 0.253 µM): 0.325
- relative viability (Bexarotene + OSI-027; first compound 0.8 µM): 0.331
- relative viability (Bexarotene + OSI-027; first compound 2.53 µM): 0.34
- relative viability (Bexarotene + OSI-027; first compound 8 µM): 0.399
- relative viability (Bexarotene + Foretinib; first compound 0.08 µM): 0.54
- relative viability (Bexarotene + Foretinib; first compound 0.253 µM): 0.499
- relative viability (Bexarotene + Foretinib; first compound 0.8 µM): 0.547
- relative viability (Bexarotene + Foretinib; first compound 2.53 µM): 0.523
- relative viability (Bexarotene + Foretinib; first compound 8 µM): 0.468

Cell Line: NCI-H2085
- relative viability (Bexarotene + AZD7762; first compound 0.08 µM): 0.868
- relative viability (Bexarotene + AZD7762; first compound 0.253 µM): 0.92
- relative viability (Bexarotene + AZD7762; first compound 0.8 µM): 0.803
- relative viability (Bexarotene + AZD7762; first compound 2.53 µM): 0.789
- relative viability (Bexarotene + AZD7762; first compound 8 µM): 0.815
- relative viability (Bexarotene + Pemetrexed; first compound 0.08 µM): 0.832
- relative viability (Bexarotene + Pemetrexed; first compound 0.253 µM): 0.808
- relative viability (Bexarotene + Pemetrexed; first compound 0.8 µM): 0.753
- relative viability (Bexarotene + Pemetrexed; first compound 2.53 µM): 0.751
- relative viability (Bexarotene + Pemetrexed; first compound 8 µM): 0.74
- relative viability (Bexarotene + OSI-027; first compound 0.08 µM): 0.841
- relative viability (Bexarotene + OSI-027; first compound 0.253 µM): 0.718
- relative viability (Bexarotene + OSI-027; first compound 0.8 µM): 0.642
- relative viability (Bexarotene + OSI-027; first compound 2.53 µM): 0.675
- relative viability (Bexarotene + OSI-027; first compound 8 µM): 0.704
- relative viability (Bexarotene + Foretinib; first compound 0.08 µM): 0.963
- relative viability (Bexarotene + Foretinib; first compound 0.253 µM): 0.692
- relative viability (Bexarotene + Foretinib; first compound 0.8 µM): 0.804
- relative viability (Bexarotene + Foretinib; first compound 2.53 µM): 0.862
- relative viability (Bexarotene + Foretinib; first compound 8 µM): 0.94
